Reference: US20040121946A9, “Inducing cellular immune responses to her2/neu using peptide and nucleic acid compositions” (priority 2002, published 2004)
Where no end group is shown, it is not given here.

Columns and labels:
DRB1*1302 (DR6w19) = DRB1*1302 (DR6w19) (Homo sapiens, UniProt P01903+P01911, A100E/A169T/K41T/L162R/M171V/P40S/Q125H/Q178H/Q39Y/Q99D/R42S/S66N/T262R/V115G/W38E/Y61H); assay: HLA class II peptide binding assay, purified HLA; conditions: Table XXIX; read-out: DR6w19 nM
[1] = tested on: HLA-DR molecules (DR1, DR4w4, DR7, DRB5*0101, DRB1*1501, DRB1*1101, DRB1*0802, DRB1*1302); assay: DR supertype cross-reactive binding; design: species or system human; conditions: for DR147 Cross-binding: Table XXVIII
DRB1*0101 (DR1) = DRB1*0101 (DR1) (Homo sapiens, UniProt P01903+P01911, A100R/D57E/F55L/F60I/F76Y/I96L/L162R/M171V/P40L/Q125E/R42F/V115G/Y59C); assay: HLA class II peptide binding assay, purified HLA; conditions: unit not given
DRB1*0701 (DR7) = DRB1*0701 (DR7) (Homo sapiens, UniProt P01903+P01911, A100R/A102G/A103Q/D57E/D86V/E43K/F76Y/K127E/L162R/M171V/P40G/Q125H/Q99D/R33Q/R42Y/R54Q/S133A/S66F/T210M/V115G/Y107V/Y59L/Y89S); assay: HLA class II peptide binding assay, purified HLA; conditions: unit not given
DRB1*0401 (DR4w4) = DRB1*0401 (DR4w4) (Homo sapiens, UniProt P01903+P01911, A100K/A169T/F76Y/I96L/K127E/L162R/M171V/N62H/P40V/Q125Y/R42H/S133A/S149N/S66Y/V115G/V209L/W38E); assay: HLA class II peptide binding assay, purified HLA; conditions: unit not given
DRB1*1101 (DR5w11) = DRB1*1101 (DR5w11) (Homo sapiens, UniProt P01903+P01911, A100R/A169T/A87E/I96F/K41T/L162R/M171V/P40S/Q125H/Q178H/Q39Y/Q99D/R42S/S66Y/T262R/V115G/W38E); assay: HLA class II peptide binding assay, purified HLA; conditions: Table XXa, DR 3a motif peptides; unit not given
[2] = number of DR1, DR4w4, DR7 bound
[3] = Table XIX, DR supermotif peptides
[4] = Table XXa, DR 3a motif peptides

Compound	IC50 (DRB1*1302 (DR6w19)) [nM]	DR147 Binding ([1]; number of DR1, DR4w4, DR7 bound, Table XXIX)	DR147 Cross-binding [1, 2]	Broad Binding (5/8) ([1]; number of the 8 DR alleles bound)	DR1 binding data (DRB1*0101 (DR1); [3])	DR7 binding data (DRB1*0701 (DR7); [3])	DR4w4 binding data (DRB1*0401 (DR4w4); [3])	DR5w11 binding data (DRB1*1101 (DR5w11))	DR4w4 binding data (DRB1*0401 (DR4w4); [4])	DR1 binding data (DRB1*0101 (DR1); [4])	DR7 binding data (DRB1*0701 (DR7); [4])
CC(C)C[C@H](NC(=O)[C@H](CCC(=O)O)NC(=O)[C@@H](NC(=O)[C@@H](N)CCC(=O)O)[C@@H](C)O)C(=O)N[C@@H](CCCNC(=N)N)C(=O)N[C@@H](CCCCN)C(=O)N[C@H](C(=O)N[C@@H](CCCCN)C(=O)N[C@H](C(=O)N[C@@H](CC(C)C)C(=O)NCC(=O)N[C@@H](CO)C(=O)NCC(=O)N[C@@H](C)C(=O)N[C@@H](Cc1ccccc1)C(=O)O)C(C)C)C(C)C	2500	2	2	2	–	–	–	–	–	–	–
CSCC[C@H](NC(=O)[C@H](CC(=O)O)NC(=O)[C@@H](NC(=O)CN)[C@@H](C)O)C(=O)N[C@@H](CCCCN)C(=O)N[C@@H](CC(C)C)C(=O)N[C@@H](CCCNC(=N)N)C(=O)N[C@@H](CC(C)C)C(=O)N1CCC[C@H]1C(=O)N[C@@H](C)C(=O)N[C@@H](CO)C(=O)N1CCC[C@H]1C(=O)N[C@@H](CCC(=O)O)C(=O)N[C@H](C(=O)N[C@@H](Cc1c[nH]cn1)C(=O)O)[C@@H](C)O	–	–	0	–	0.0010	−0.0013	−0.0025	–	–	–	–
CC[C@H](C)[C@H](NC(=O)[C@H](CCC(=O)O)NC(=O)[C@@H](N)CCCCN)C(=O)N[C@@H](CC(C)C)C(=O)N[C@@H](CC(=O)O)C(=O)N[C@@H](CCC(=O)O)C(=O)N[C@@H](C)C(=O)N[C@@H](Cc1ccc(O)cc1)C(=O)N[C@H](C(=O)N[C@@H](CCSC)C(=O)N[C@@H](C)C(=O)NCC(=O)N[C@H](C(=O)NCC(=O)N[C@@H](CO)C(=O)O)C(C)C)C(C)C	–	–	0	–	0.0036	−0.0011	0.0073	–	–	–	–
CC[C@H](C)[C@H](NC(=O)[C@H](CC(C)C)NC(=O)[C@H](C)NC(=O)[C@@H](N)CC(C)C)C(=O)N[C@@H](Cc1c[nH]cn1)C(=O)N[C@@H](Cc1c[nH]cn1)C(=O)N[C@@H](CC(N)=O)C(=O)N[C@H](C(=O)N[C@@H](Cc1c[nH]cn1)C(=O)N[C@@H](CC(C)C)C(=O)N[C@@H](CS)C(=O)N[C@@H](Cc1ccccc1)C(=O)N[C@H](C(=O)N[C@@H](Cc1c[nH]cn1)C(=O)N[C@H](C(=O)O)[C@@H](C)O)C(C)C)[C@@H](C)O	–	–	–	–	–	–	–	0.0025	–	–	–
CC[C@H](C)[C@H](NC(=O)[C@H](CC(C)C)NC(=O)[C@H](C)NC(=O)[C@H](CC(C)C)NC(=O)CNC(=O)[C@H](CO)NC(=O)CNC(=O)[C@H](CC(C)C)NC(=O)[C@H](CCC(=O)O)NC(=O)[C@H](CCCNC(=N)N)NC(=O)[C@@H](N)CC(C)C)C(=O)N[C@@H](Cc1c[nH]cn1)C(=O)N[C@@H](Cc1c[nH]cn1)C(=O)N[C@@H](CC(N)=O)C(=O)N[C@H](C(=O)O)[C@@H](C)O	–	–	1	–	0.0310	−0.0013	−0.0025	–	–	–	–
CC[C@H](C)[C@H](NC(=O)[C@@H]1CCCN1)C(=O)N[C@@H](CCCCN)C(=O)N[C@@H](Cc1c[nH]c2ccccc12)C(=O)N[C@@H](CCSC)C(=O)N[C@@H](C)C(=O)N[C@@H](CC(C)C)C(=O)N[C@@H](CCC(=O)O)C(=O)N[C@@H](CO)C(=O)N[C@H](C(=O)N[C@@H](CC(C)C)C(=O)N[C@@H](CCCNC(=N)N)C(=O)N[C@@H](CCCNC(=N)N)C(=O)N[C@@H](CCCNC(=N)N)C(=O)N[C@@H](Cc1ccccc1)C(=O)O)[C@@H](C)CC	–	–	1	–	0.7900	0.0078	0.0350	–	–	–	–
CC(C)C[C@H](NC(=O)[C@H](C)NC(=O)[C@H](Cc1ccc(O)cc1)NC(=O)[C@H](CC(N)=O)NC(=O)[C@H](CC(=O)O)NC(=O)[C@H](CCC(=O)O)NC(=O)[C@H](Cc1ccccc1)NC(=O)[C@H](CC(C)C)NC(=O)[C@H](CCC(N)=O)NC(=O)[C@@H](N)[C@@H](C)O)C(=O)N[C@@H](C)C(=O)N[C@H](C(=O)N[C@@H](CC(C)C)C(=O)N[C@@H](CC(=O)O)C(=O)N[C@@H](CC(N)=O)C(=O)O)C(C)C	–	–	1	–	0.0530	0.0160	−0.0025	–	–	–	–
CC(C)C[C@H](NC(=O)[C@H](C)NC(=O)[C@H](CCC(N)=O)NC(=O)[C@H](Cc1c[nH]cn1)NC(=O)[C@@H]1CCCN1C(=O)[C@H](CC(N)=O)NC(=O)[C@H](CCCNC(=N)N)NC(=O)[C@H](Cc1ccccc1)NC(=O)[C@H](CC(C)C)NC(=O)[C@H](CCC(N)=O)NC(=O)[C@H](CC(=O)O)NC(=O)[C@@H](N)Cc1c[nH]c2ccccc12)C(=O)N[C@@H](CC(C)C)C(=O)N[C@@H](Cc1c[nH]cn1)C(=O)N[C@H](C(=O)O)[C@@H](C)O	–	–	–	–	–	–	–	−0.0008	−0.0055	–	–
DMKLRLPASPETHLD	–	–	0	–	0.0010	−0.0013	−0.0025	–	–	–	–
ETELVEPLTPSGAMP	–	–	1	–	0.0060	−0.0013	−0.0025	–	–	–	–
IKVLRENTSPKANKE	–	–	0	–	−0.0005	−0.0011	−0.0032	–	–	–	–
ITDFGLARLLDIDET	–	–	0	–	0.0048	−0.0011	−0.0032	–	–	–	–
LLVVVLGVVFGILIK	–	–	0	–	−0.0008	0.0019	−0.0025	–	–	–	–
LTSHSAVVGILLVV	–	–	–	–	0.1900	0.0049	−0.0025	–	–	–	–
PSTFKGTPTAENPEY	–	–	0	–	−0.0005	−0.0011	−0.0032	–	–	–	–
QGFFCPDPAPGAGGM	–	–	0	–	−0.0005	−0.0011	0.0230	–	0.0230	−0.0005	−0.0011
QPDVRPQPPSPREGP	–	–	0	–	0.0007	−0.0011	−0.0032	–	–	–	–
TDGYVAPLTCSPQPE	–	–	0	–	−0.0005	−0.0011	−0.0032	–	–	–	–
VCPLHNQEVTAEDGT	–	–	0	–	−0.0004	−0.0013	−0.0025	–	–	–	–
VEPLTPSGAMPNQAQ	–	–	0	–	−0.0008	−0.0011	−0.0025	–	–	–	–
VVGILLVVVLGVVFG	–	–	0	–	−0.0004	−0.0013	−0.0025	–	–	–	–
